One experiment has as its target Acetylcholinesterase (Homo sapiens, UniProt P22303). As to the kind of experiment: biochemical.
Another experiment has as its target Butyrylcholinesterase (Homo sapiens, UniProt P06276). The experiment is described as follows: biochemical.

Sequence of Butyrylcholinesterase (P06276 29-602): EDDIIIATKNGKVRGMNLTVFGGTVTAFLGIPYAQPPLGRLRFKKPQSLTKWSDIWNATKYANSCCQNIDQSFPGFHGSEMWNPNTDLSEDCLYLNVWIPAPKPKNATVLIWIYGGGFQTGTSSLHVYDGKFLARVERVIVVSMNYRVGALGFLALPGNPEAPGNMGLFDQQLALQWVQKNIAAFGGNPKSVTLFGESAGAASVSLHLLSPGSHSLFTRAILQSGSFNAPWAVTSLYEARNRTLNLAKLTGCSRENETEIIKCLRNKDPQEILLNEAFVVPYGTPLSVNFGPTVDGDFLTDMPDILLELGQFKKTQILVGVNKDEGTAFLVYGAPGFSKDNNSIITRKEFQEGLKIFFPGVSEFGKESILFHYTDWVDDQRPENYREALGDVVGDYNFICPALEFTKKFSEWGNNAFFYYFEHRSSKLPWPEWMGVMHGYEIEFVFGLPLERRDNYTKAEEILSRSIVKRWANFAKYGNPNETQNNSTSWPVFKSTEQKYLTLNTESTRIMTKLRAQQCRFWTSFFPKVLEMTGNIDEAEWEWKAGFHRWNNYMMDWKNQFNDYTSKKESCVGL
Sequence of Acetylcholinesterase (P22303 32-614): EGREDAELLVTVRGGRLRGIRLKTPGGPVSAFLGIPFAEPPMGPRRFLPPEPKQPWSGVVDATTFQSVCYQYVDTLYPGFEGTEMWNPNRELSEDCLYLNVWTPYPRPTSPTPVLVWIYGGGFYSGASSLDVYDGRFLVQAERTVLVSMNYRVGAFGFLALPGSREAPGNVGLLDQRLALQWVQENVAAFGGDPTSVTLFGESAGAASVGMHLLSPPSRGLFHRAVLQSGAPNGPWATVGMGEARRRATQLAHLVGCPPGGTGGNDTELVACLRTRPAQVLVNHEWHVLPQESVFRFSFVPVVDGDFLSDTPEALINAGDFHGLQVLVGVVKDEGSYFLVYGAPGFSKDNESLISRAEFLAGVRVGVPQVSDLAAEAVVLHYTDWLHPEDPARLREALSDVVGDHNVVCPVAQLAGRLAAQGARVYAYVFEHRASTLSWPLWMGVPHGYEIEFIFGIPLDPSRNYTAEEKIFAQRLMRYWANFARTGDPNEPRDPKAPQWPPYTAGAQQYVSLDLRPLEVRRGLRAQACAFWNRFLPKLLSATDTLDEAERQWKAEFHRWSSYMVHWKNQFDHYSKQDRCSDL

A word on the IC50: it is the midpoint of a concentration-inhibition curve. Read a low IC50 as inhibition by little substance. `COc1cc(Br)c2c(c1O)C13C=C[C@@H](O)CC1N(CC3)C2` (mixture of isomers) [Nr 14]: the IC50 was greater than 100 µM against Acetylcholinesterase and 18 µM against Butyrylcholinesterase. The corresponding values for `CCCCCCN1CCC23C=C[C@H](O)CC2Oc2c(OC)cc(Br)c(c23)C1` (mixture of isomers) [Nr 15] are 40 µM and 0.45 µM. The corresponding values for `COc1cc(Br)c2c3c1OC1C[C@@H](O)C=CC31CCN(CC#N)C2` (mixture of isomers) [Nr 19] are greater than 100 µM and 70 µM.

For `CCOC(=O)C(=O)N1CCC23C=C[C@H](O)CC2Oc2c(OC)cc(Br)c(c23)C1` (mixture of isomers) [Nr 20], the IC50 at Acetylcholinesterase was determined as 32 µM; on Butyrylcholinesterase it was 11 µM.

For the compound `C#CCN1CCC23C=C[C@H](O)CC2Oc2c(OC)cc(Br)c(c23)C1` (mixture of isomers) [Nr 23], the IC50 on Acetylcholinesterase was determined as 63 µM; against Butyrylcholinesterase, 10 µM.

In the case of `COc1ccc2c3c1OC1C/C(=N/N(C)C)C=CC31CCN(C)C2` (racemic) [Nr 24], the IC50 was found to be 80 µM against Acetylcholinesterase and 60 µM at Butyrylcholinesterase. The corresponding values for `COc1cc(Br)c2c3c1OC1C[C@@H](O)C=CC31CCN(CC(N)=O)C2` (mixture of isomers) [Nr 27] are greater than 100 µM and 15 µM. The corresponding values for `COc1ccc2c3c1OC1C/C(=N/NC(N)=O)C=CC31CCN(C)C2` (racemic) [Nr 32] are greater than 100 µM and 20 µM. The corresponding values for `COc1cc(Br)c2c3c1OC1C[C@@H](O)C=CC31CCN(CCO)C2` (mixture of isomers) [Nr 33] are 34 µM and 6.4 µM. Turning to `COc1ccc2c3c1OC1C[C@@H](O)C=CC31CCN(CCO)C2` (mixture of isomers) [Nr 34], the concentration for half-maximal inhibition (IC50) at Acetylcholinesterase was 14 µM; against Butyrylcholinesterase, 26 µM. The corresponding values for `C=CCN1CCC23C=C[C@H](O)CC2Oc2c(OC)cc(Br)c(c23)C1` (mixture of isomers) [Nr 35] are greater than 100 µM and 2.6 µM. In the case of `COc1ccc2c3c1OC1C[C@@H](O)C=CC31CCN(CCN1CCOCC1)C2` (mixture of isomers) [Nr 36], on Butyrylcholinesterase, the IC50 came out at 7 µM. Turning to `COc1ccc2c3c1OC1C[C@@H](O)C=CC31CCN(CC#N)C2` (mixture of isomers) [Nr 37], the concentration for half-maximal inhibition (IC50) against Acetylcholinesterase was 30 µM; against Butyrylcholinesterase it was greater than 100 µM. The corresponding values for `COc1cc(Br)c2c3c1OC1C[C@@H](O)C=CC31CCN(Cc1ccccc1)C2` (mixture of isomers) [Nr 38] are greater than 100 µM and 0.24 µM. The corresponding values for `C=CCN1CCC23C=C[C@H](O)CC2Oc2c(OC)ccc(c23)C1` (mixture of isomers) [Nr 40] are 3.3 µM and 3.1 µM. The corresponding values for `COc1ccc2c3c1OC1C[C@@H](O)C=CC31CCN(Cc1ccccc1)C2` (mixture of isomers) [Nr 41] are 0.7 µM and 0.65 µM. In the case of `CCOC(=O)CCN1CCC23C=C[C@H](O)CC2Oc2c(OC)cc(Br)c(c23)C1` (mixture of isomers) [Nr 55], the half-inhibitory concentration (IC50) on Acetylcholinesterase was greater than 100 µM; on Butyrylcholinesterase it was 19 µM.

In the case of `COc1ccc2c3c1OC1C[C@@H](O)C=CC31CCN(CCCN1CC3CC1CN3c1ccccc1)C2` (mixture of isomers) [Nr 60], the IC50 amounted to 24 µM on Acetylcholinesterase and 7.5 µM at Butyrylcholinesterase. The corresponding values for `COc1ccc2c3c1OC1C[C@@H](O)C=CC31CCN(CCCN1CC3CC1CN3c1ccc(F)cc1)C2` (mixture of isomers) [Nr 61] are 5.2 µM and 5 µM. The corresponding values for `C=CCN1CCC23C=C[C@H](O)CC2Oc2c(OC)cc(C)c(c23)C1` (mixture of isomers) [Nr 62] are greater than 100 µM and 2.3 µM. The corresponding values for `COc1cc(C)c2c3c1OC1C[C@@H](O)C=CC31CCN(C)C2` (mixture of isomers) [Nr 63] are greater than 100 µM and 17 µM.

On to `COc1cc(C)c2c3c1OC1C[C@@H](O)C=CC31CCN(CCCN1CCCCC1)C2` (mixture of isomers) [Nr 64], for which the concentration for half-maximal inhibition (IC50) on Acetylcholinesterase came to 46 µM; against Butyrylcholinesterase, 0.6 µM.

`COc1cc(C)c2c3c1OC1C[C@@H](O)C=CC31CCN(CCN1CCOCC1)C2` (mixture of isomers) [Nr 65]: the IC50 was greater than 100 µM at Acetylcholinesterase and 5.2 µM at Butyrylcholinesterase. The corresponding values for `C=C(C)C[N+]1(C)CCC23C=C[C@H](O)CC2Oc2c(OC)cc(C)c(c23)C1` (mixture of isomers) [Nr 67] are 70 µM and 2.4 µM. The corresponding values for `C#CC[N+]1(C)CCC23C=C[C@H](O)CC2Oc2c(OC)cc(C)c(c23)C1` (mixture of isomers) [Nr 68] are 78 µM and 2.5 µM.

Turning to `COc1cc(C)c2c3c1OC1C[C@@H](O)C=CC31CC[N+](C)(Cc1ccccc1)C2` (mixture of isomers) [Nr 69], the 50% inhibitory concentration (IC50) against Acetylcholinesterase turned out to be 47 µM; against Butyrylcholinesterase, 0.7 µM. The corresponding values for `COc1cc(Br)c2c3c1OC1C[C@@H](O)C=CC31CCN(C(=O)NC(C)C)C2` (mixture of isomers) [Nr 70] are greater than 100 µM and 25 µM. The corresponding values for `CNC(=S)N1CCC23C=C[C@H](O)CC2Oc2c(OC)cc(Br)c(c23)C1` (mixture of isomers) [Nr 71] are 31 µM and 20 µM.

Turning to `COc1cc(Br)c2c3c1OC1C[C@@H](O)C=CC31CCN(CCC#N)C2` (mixture of isomers) [Nr 72], the IC50 at Acetylcholinesterase is greater than 100 µM; against Butyrylcholinesterase, 43 µM. The corresponding values for `CNC(=S)N1CCC23C=C[C@H](O)CC2Oc2c(OC)ccc(c23)C1` (mixture of isomers) [Nr 73] are 23 µM and 30 µM. In turn, `COc1ccc2c3c1O[C@H]1C[C@@H](O)C=C[C@@]31CCN(CCCN(C)C)C2` (racemic) [Nr 74] displayed a half-inhibitory concentration (IC50) at Butyrylcholinesterase of 10 µM. On to `COc1ccc2c3c1OC1C[C@@H](O)C=CC31CCN(C(=O)NC(C)C)C2` (mixture of isomers) [Nr 75], for which the values for the concentration for half-maximal inhibition (IC50) against Acetylcholinesterase and at Butyrylcholinesterase were 4.2 µM and greater than 100 µM, respectively. As for `COc1ccc2c3c1OC1C[C@@H](O)C=CC31CCN(C(=O)Nc1ccccc1)C2` (mixture of isomers) [Nr 76], the figures for the half-inhibitory concentration (IC50) at Acetylcholinesterase and at Butyrylcholinesterase were 70 µM and greater than 100 µM, respectively.

On to `COc1ccc2c3c1OC1C[C@@H](O)C=CC31CCN(CCC#N)C2` (mixture of isomers) [Nr 77], for which the IC50 against Butyrylcholinesterase is greater than 100 µM. Same read-out and setting: as for `CCOC(=O)CCN1CCC23C=C[C@H](O)CC2Oc2c(OC)ccc(c23)C1` (mixture of isomers) [Nr 78], the figure is 17 µM. For `COc1ccc2c3c1OC1C[C@@H](O)C=CC31CCN(/C(=N/C#N)SC)C2` (mixture of isomers) [Nr 79], the half-maximal inhibitory concentration (IC50) against Acetylcholinesterase was found to be 25 µM; against Butyrylcholinesterase it was 0.54 µM. The corresponding values for `COc1ccc2c3c1OC1C[C@@H](O)C=CC31CCN(C=C(C#N)C#N)C2` (mixture of isomers) [Nr 80] are 28.5 µM and greater than 100 µM.

With `COc1ccc2c3c1OC1C[C@@H](O)C=CC31CCN(CCCO)C2` (mixture of isomers) [Nr 81], the figures for the concentration for half-maximal inhibition (IC50) on Acetylcholinesterase and against Butyrylcholinesterase were 7.2 µM and 21 µM, respectively. For `COc1ccc2c3c1OC1C[C@@H](O)C=CC31CCN(C(=O)NC(C)(C)C)C2` (mixture of isomers) [Nr 82], the values for the IC50 against Acetylcholinesterase and at Butyrylcholinesterase were 4.8 µM and greater than 100 µM, respectively.

Turning to `COc1ccc2c3c1OC1C[C@@H](O)C=CC31CCN(C(=O)NC1CCCCC1)C2` (mixture of isomers) [Nr 83], the IC50 against Butyrylcholinesterase was greater than 100 µM.

Take `COc1ccc2c3c1OC1C[C@@H](O)C=CC31CCN(c1ncccn1)C2` (mixture of isomers) [Nr 85]: the IC50 against Acetylcholinesterase turned out to be 38 µM; on Butyrylcholinesterase, 30 µM.

In turn, `CCNC(=O)N1CCC23C=C[C@H](O)CC2Oc2c(OC)ccc(c23)C1` (mixture of isomers) [Nr 87] displayed a concentration for half-maximal inhibition (IC50) on Butyrylcholinesterase greater than 100 µM. Regarding `COc1ccc2c3c1OC1C[C@@H](O)C=CC31CCN(C(=O)Nc1ccc3ccccc3c1)C2` (mixture of isomers) [Nr 88], the IC50 is 36 µM against Acetylcholinesterase and greater than 100 µM against Butyrylcholinesterase. The corresponding values for `COc1ccc2c3c1OC1C[C@@H](O)C=CC31CCN(c1nccc(Cl)n1)C2` (mixture of isomers) [Nr 89] are 66 µM and greater than 100 µM. The corresponding values for `COc1ccc2c3c1OC1C[C@@H](O)C=CC31CCN(CCCN)C2` (mixture of isomers) [Nr 90] are 3.4 µM and 11 µM. Turning to `C=CCNC(=S)N1CCC23C=C[C@H](O)CC2Oc2c(OC)ccc(c23)C1` (mixture of isomers) [Nr 91], the values for the IC50 against Acetylcholinesterase and against Butyrylcholinesterase were 21 µM and greater than 100 µM, respectively. The corresponding values for `COc1ccc2c3c1OC1C[C@@H](O)C=CC31CCN(C(=O)Nc1ccc(Cl)cc1)C2` (mixture of isomers) [Nr 92] are 24 µM and greater than 100 µM. `COc1ccc2c3c1OC1C[C@@H](O)C=CC31CCN(C(=O)CCl)C2` (mixture of isomers) [Nr 98] gave a 50% inhibitory concentration (IC50) against Butyrylcholinesterase of 20 µM. On the same count and under the same terms, for `CCOC(=O)CN1CCC23C=C[C@H](O)CC2Oc2c(OC)ccc(c23)C1` (mixture of isomers) [Nr 100] the value was 90 µM; for `COc1ccc2c3c1O[C@H]1C[C@@H](OC(=O)N[C@H](C)c4ccccc4)C=C[C@@]31CCN(C)C2` [Nr 2], 70 µM. On the same count and under the same terms, for `COc1ccc2c3c1O[C@H]1C[C@@H](OC(=O)N[C@@H](C)c4ccccc4)C=C[C@@]31CCN(C)C2` [Nr 3] the value was 75 µM.

For `COc1ccc2c3c1O[C@H]1C[C@@H](O)C=C[C@@]31CCN(CCC(=O)OC(C)(C)C)C2` [Nr 116], the midpoint of inhibition against Butyrylcholinesterase, the IC50, lay at 4 µM. On the same count and under the same terms, as for `COc1ccc2c3c1O[C@@H]1C[C@H](O)C=C[C@]31CCN(CCCN(C)C)C2` [Nr 151], the figure is 67 µM. At Acetylcholinesterase, `COc1ccc2c(c1)CC(CCCCN1CC[C@@]34C=C[C@H](O)C[C@@H]3Oc3c(OC)ccc(c34)C1)C2=O` (some centres unmarked) [Nr 168] had a half-inhibitory concentration (IC50) of 0.024 µM. Same read-out and setting: as for `COc1ccc2c3c1O[C@@H]1C[C@H](OC(=O)N[C@H](C)c4ccccc4)C=C[C@]31CCN(C)C2` [Nr 180], the figure is 85 µM. In turn, `COc1ccc2c3c1O[C@@H]1C[C@H](OC(=S)Nc4ccccc4)C=C[C@]31CCN(C)C2` [Nr 181] displayed a concentration for half-maximal inhibition (IC50) against Acetylcholinesterase of 35 µM.

At Acetylcholinesterase, `CCCCNC(=S)O[C@@H]1C=C[C@]23CCN(C)Cc4ccc(OC)c(c42)O[C@@H]3C1` [Nr 182] came in with an IC50 of 85 µM. Same read-out and setting: as for `COc1ccc2c3c1O[C@H]1C[C@@H](O)C=C[C@]31CC[N+](C)(CCN1CCOCC1)C2` (some centres unmarked) [Nr 199], the figure is 5 µM; as for `COc1cc(Br)c2c3c1O[C@@H]1C[C@H](O)C=C[C@]31CCN(C(=O)CN1CCN(C)CC1)C2` [Nr 272], 89 µM. `COc1cc(Br)c2c3c1O[C@@H]1C[C@H](O)C=C[C@]31CCN(CCCN1CCN(C)CC1)C2` [Nr 273]: the IC50 against Butyrylcholinesterase is 31 µM.

Values taken from US20060111341A1, “Use of galanthamine and the derivatives thereof in the production of medicaments” (priority 2003, published 2006).
